Read-outs that look alike come from different tables or passages of the source.
Assays:
Mcl-1 protein = Mcl-1 protein (UniProtKB primary accession number: Q07820) (Homo sapiens, UniProt Q07820); test: Inhibition of Mcl-1 by fluorescence polarisation, Method 1; type: binding; conditions: read-out: IC50 (M) Mcl-1 FP
In short: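 FP readout of relative binding potency. Mcl-1 5 nM final, fluorescein-labelled ligand 1 nM final; buffer 10 mM HEPES, 150 mM NaCl, 0.05% Tween 20, pH 7.4; 11-pt dilution series, 5% DMSO final.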

[1] = system: H929 multiple myeloma tumour line; test: In vitro cytotoxicity, Microculture Tetrazolium Assay; type: cell-based; conditions: H929 cells, 48 hours exposure, read-out: IC50 (μM) MTT H929
Method: The cytotoxicity studies were carried out on the H929 multiple myeloma tumour line.
The cells are distributed onto microplates and exposed to the test compounds for 48 hours.

[2] = system: AMO-1 multiple myeloma cells; test: Quantification of the cleaved form of PARP in vivo (MSD ELISA, tumour lysates); design: species or system mice (SCID strain); conditions: activation factor: cleaved PARP in treated mice / control mice, AMO-1 xenograft in SCID mice, intraveinous or oral routes
Method: The ability of the compounds of the invention to induce apoptosis, by measuring cleaved PARP levels, is evaluated in a xenograft model of AMO-1 multiple myeloma cells. 1.10^7 AMO-1 cells are grafted sub-cutaneously into immunosuppressed mice (SCID strain). 12 to 14 days after the graft, the animals are treated by intraveinous or oral routes with the various compounds. After treatment, the tumour masses are recovered and lysed, and the cleaved form of PARP is quantified in the tumour lysates.
The quantification is carried out using the “Meso Scale Discovery (MSD) ELISA platform” test, which specifically assays the cleaved form of PARP. It is expressed in the form of an activation factor corresponding to the ratio between the quantity of cleaved PARP in the treated mice divided by the quantity of cleaved PARP in the control mice.

[3] = fluorescence polarisation, Method 1, or Method 2
[4] = Homo sapiens, NCI-H929, 48 h, MTT
[5] = fluorescence polarisation test, Method 2 values are underlined in the patent (underlining not visible here)
[6] = fluorescence polarisation test, Method 1, or Method 2 where the value is underlined (underlining not visible)
[7] = Homo sapiens, NCI-H929, 48 h, cell viability

Chain of Mcl-1 protein (Q07820 whole entry): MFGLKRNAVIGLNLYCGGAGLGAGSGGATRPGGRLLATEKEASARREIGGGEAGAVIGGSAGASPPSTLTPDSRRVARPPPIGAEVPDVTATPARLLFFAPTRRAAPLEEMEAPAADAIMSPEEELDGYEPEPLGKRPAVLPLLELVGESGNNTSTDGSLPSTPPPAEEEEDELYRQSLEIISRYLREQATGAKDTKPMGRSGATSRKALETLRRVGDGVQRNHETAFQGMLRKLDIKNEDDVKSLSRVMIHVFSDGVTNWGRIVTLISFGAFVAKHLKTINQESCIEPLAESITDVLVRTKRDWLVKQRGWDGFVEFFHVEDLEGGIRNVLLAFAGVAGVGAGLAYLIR

Row | Compound | IC50 (Mcl-1 protein; [3]) [M] | IC50 [1, 4] [µM] | PARP fold [2] [fold] | IC50 (Mcl-1 protein; [5]) [M] | IC50 ([1]; MTT) [µM] | IC50 (Mcl-1 protein; [6]) [M] | IC50 [1, 7] [µM]
1 | CC#Cc1sc2ncnc(OC(Cc3ccccc3OCc3ccnn3CC(F)(F)F)C(=O)O)c2c1-c1ccc(OCCN2CCN(C)CC2)c(Cl)c1C [Example 489, (2R)-2-{[(5Sa)-5-{3-chloro-2-methyl-4-[2-(4-methylpiperazin-1-yl)ethoxy]phenyl}-6-(prop-1-yn-1-yl)thieno[2,3-d]pyrimidin-4-yl]oxy}-3-(2-{[1-(2,2,2-trifluoroethyl)-1H-pyrazol-5-yl]methoxy}phenyl)propanoic acid] | 1.2e-09 | 0.026 | 233.2 |  |  |  | 
2 | Cc1c(-c2c(-c3ccc(F)cc3)sc3ncnc(OC(Cc4ccccc4OCc4ccnc(OC(C)C)n4)C(=O)O)c23)ccc(OCCN2CCN(C)CC2)c1Cl [Example 55, (2R)-2-{[(5Sa)-5-{3-chloro-2-methyl-4-[2-(4-methylpiperazin-1-yl)ethoxy]phenyl}-6-(4-fluorophenyl)thieno[2,3-d]pyrimidin-4-yl]oxy}-3-(2-{[2-(propan-2-yloxy)pyrimidin-4-yl]methoxy}phenyl)propanoic acid] |  | 0.007 | 188.4 | 5.8e-09 |  |  | 
3 | CCc1c(-c2c(-c3ccc(F)cc3)sc3ncnc(O[C@H](Cc4ccccc4OCc4ccnc(-c5ccccc5OC)n4)C(=O)O)c23)ccc(OCCN2CCN(C)CC2)c1Cl [Example 741, (2R)-2-{[(5Sa)-5-{3-chloro-2-ethyl-4-[2-(4-methylpiperazin-1-yl)ethoxy]phenyl}-6-(4-fluorophenyl)thieno[2,3-d]pyrimidin-4-yl]oxy}-3-(2-{[2-(2-methoxyphenyl)pyrimidin-4-yl]methoxy}phenyl)propanoic acid] | 9.48e-10 |  | 244 |  | 0.002 |  | 
4 | Cc1cnccc1-c1nccc(COc2ccccc2CC(Oc2ncnc3sc(-c4ccc(F)o4)c(-c4ccc(OCCN5CCN(C)CC5)c(Cl)c4C)c23)C(=O)O)n1 [Example 198, (2R)-2-{[(5Sa)-5-{3-chloro-2-methyl-4-[2-(4-methylpiperazin-1-yl)ethoxy]phenyl}-6-(5-fluorofuran-2-yl)thieno[2,3-d]pyrimidin-4-yl]oxy}-3-(2-{[2-(3-methylpyridin-4-yl)pyrimidin-4-yl]methoxy}phenyl)propanoic acid] |  | 0.002 | 280 | 7.7e-09 |  |  | 
5 | CC#Cc1sc2ncnc(OC(Cc3ccccc3OCc3ccnn3C(C)(C)C)C(=O)O)c2c1-c1ccc(OCCN2CCN(C)CC2)c(Cl)c1C [Example 488, (2R)-3-{2-[(1-tert-butyl-1H-pyrazol-5-yl)methoxy]phenyl}-2-{[(5Sa)-5-{3-chloro-2-methyl-4-[2-(4-methylpiperazin-1-yl)ethoxy]phenyl}-6-(prop-1-yn-1-yl)thieno[2,3-d]pyrimidin-4-yl]oxy}propanoic acid] | 5.4e-09 | 0.014 | 175.5 |  |  |  | 
6 | Cc1cc(-c2nccc(COc3ccccc3CC(Oc3ncnc4sc(-c5ccc(F)cc5)c(-c5ccc(OCCN6CCN(C)CC6)c(Cl)c5C)c34)C(=O)O)n2)ccn1 [Example 118, (2R)-2-{[(5Sa)-5-{3-chloro-2-methyl-4-[2-(4-methylpiperazin-1-yl)ethoxy]phenyl}-6-(4-fluorophenyl)thieno[2,3-d]pyrimidin-4-yl]oxy}-3-(2-{[2-(2-methylpyridin-4-yl)pyrimidin-4-yl]methoxy}phenyl)propanoic acid] |  | 0.006 | 159.8 | 5.5e-09 |  |  | 
7 | COC(=O)C(Cc1ccccc1OCc1ccnc(-c2ccccc2OC)n1)Oc1ncnc2sc(-c3ccc(F)cc3)c(-c3ccc(OCCN4CCN(C)CC4)c(Cl)c3C)c12 [Example 787, methyl (2R)-2-{[(5Sa)-5-{3-chloro-2-methyl-4-[2-(4-methylpiperazin-1-yl)ethoxy]phenyl}-6-(4-fluorophenyl)thieno[2,3-d]pyrimidin-4-yl]oxy}-3-(2-{[2-(2-methoxyphenyl)pyrimidin-4-yl]methoxy}phenyl)propanoate] | 4.71e-07 | 0.245 | 131.5 |  |  |  | 
8 | Cc1c(-c2c(-c3ccc(F)cc3)sc3ncnc(OC(Cc4ccccc4OCc4ccnc(OCC(F)(F)F)n4)C(=O)O)c23)ccc(OCCN2CCN(C)CC2)c1Cl [Example 58, (2R)-2-{[(5Sa)-5-{3-chloro-2-methyl-4-[2-(4-methylpiperazin-1-yl)ethoxy]phenyl}-6-(4-fluorophenyl)thieno[2,3-d]pyrimidin-4-yl]oxy}-3-(2-{[2-(2,2,2-trifluoroethoxy)pyrimidin-4-yl]methoxy}phenyl)propanoic acid] |  | 0.01 | 181.9 | 4e-09 |  |  | 
9 | Cc1c(-c2c(-c3ccc(F)o3)sc3ncnc(OC(Cc4ccccc4OCc4ccnc(C(F)(F)F)c4)C(=O)O)c23)ccc(OCCN2CCN(C)CC2)c1Cl [Example 167, (2R)-2-{[(5Sa)-5-{3-chloro-2-methyl-4-[2-(4-methylpiperazin-1-yl)ethoxy]phenyl}-6-(5-fluorofuran-2-yl)thieno[2,3-d]pyrimidin-4-yl]oxy}-3-(2-{[2-(trifluoromethyl)pyridin-4-yl]methoxy}phenyl)propanoic acid] |  | 0.01 | 230.1 | 4.6e-09 |  |  | 
10 | CCOc1nccc(COc2ccccc2CC(Oc2ncnc3sc(-c4ccc(F)o4)c(-c4ccc(OCCN5CCN(C)CC5)c(Cl)c4C)c23)C(=O)O)n1 [Example 177, (2R)-2-{[(5Sa)-5-{3-chloro-2-methyl-4-[2-(4-methylpiperazin-1-yl)ethoxy]phenyl}-6-(5-fluorofuran-2-yl)thieno[2,3-d]pyrimidin-4-yl]oxy}-3-{2-[(2-ethoxypyrimidin-4-yl)methoxy]phenyl}propanoic acid] |  | 0.005 | 233.8 | 2.8e-09 |  |  | 
11 | CCCCn1nncc1COc1ccccc1CC(Oc1ncnc2sc(-c3ccc(F)cc3)c(-c3ccc(OCCN4CCN(C)CC4)c(Cl)c3C)c12)C(=O)O [Example 95, (2R)-3-{2-[(1-butyl-1H-1,2,3-triazol-5-yl)methoxy]phenyl}-2-{[(5Sa)-5-{3-chloro-2-methyl-4-[2-(4-methylpiperazin-1-yl)ethoxy]phenyl}-6-(4-fluorophenyl)thieno[2,3-d]pyrimidin-4-yl]oxy}propanoic acid] |  | 0.022 | 156.8 | 4.2e-09 |  |  | 
12 | CCCc1nccc(COc2ccccc2CC(Oc2ncnc3sc(-c4ccc(F)cc4)c(-c4ccc(OCCN5CCN(C)CC5)c(Cl)c4C)c23)C(=O)O)n1 [Example 41, (2R)-2-{[(5Sa)-5-{3-chloro-2-methyl-4-[2-(4-methylpiperazin-1-yl)ethoxy]phenyl}-6-(4-fluorophenyl)thieno[2,3-d]pyrimidin-4-yl]oxy}-3-{2-[(2-propylpyrimidin-4-yl)methoxy]phenyl}propanoic acid] |  | 0.007 | 288.1 | 2.9e-09 |  |  | 
13 | COc1ccccc1-c1nccc(COc2ccccc2CC(Oc2ncnc3sc(-c4ccc(F)cc4)c(-c4ccc(OCCN5CCN(C)CC5)c(Cl)c4C)c23)C(=O)OCc2oc(=O)oc2C)n1 [Example 811, (5-methyl-2-oxo-1,3-dioxol-4-yl)methyl (2R)-2-{[(5Sa)-5-{3-chloro-2-methyl-4-[2-(4-methylpiperazin-1-yl)ethoxy]phenyl}-6-(4-fluorophenyl)thieno[2,3-d]pyrimidin-4-yl]oxy}-3-(2-{[2-(2-methoxyphenyl)pyrimidin-4-yl]methoxy}phenyl)propanoate] |  |  | 117.6 |  |  | 8.55e-09 | 0.002
14 | COc1ccccc1-c1nccc(COc2ccccc2CC(Oc2ncnc3sc(-c4ccc(F)cc4)c(-c4ccc(OCCN5CCN(C)CC5)c(Cl)c4C)c23)C(=O)OCOC(=O)C(C)(C)C)n1 [Example 810, {[(2R)-2-{[(5Sa)-5-{3-chloro-2-methyl-4-[2-(4-methylpiperazin-1-yl)ethoxy]phenyl}-6-(4-fluorophenyl)thieno[2,3-d]pyrimidin-4-yl]oxy}-3-(2-{[2-(2-methoxyphenyl)pyrimidin-4-yl]methoxy}phenyl)propanoyl]oxy}methyl 2,2-dimethylpropanoate] |  |  | 122.4 |  |  | 4.2e-07 | 0.001
15 | Cc1c(-c2c(-c3ccc(F)cc3)sc3ncnc(OC(Cc4ccccc4OCc4ccnc(-c5ccccc5F)n4)C(=O)O)c23)ccc(OCCN(C)C)c1Cl [Example 757, (2R)-2-{[(5Sa)-5-{3-chloro-4-[2-(dimethylamino)ethoxy]-2-methylphenyl}-6-(4-fluorophenyl)thieno[2,3-d]pyrimidin-4-yl]oxy}-3-(2-{[2-(2-fluorophenyl)pyrimidin-4-yl]methoxy}phenyl)propanoic acid] | 3.95e-09 | 0.013 | 135.6 |  |  |  | 

Source: patent US9670227B2, “Thienopyrimidine derivatives, a process for their preparation and pharmaceutical compositions containing them” (LES LABORATOIRES SERVIER, priority 2013, dated 2017)
